Like-named read-outs stand apart in the source and are kept apart here.
Tests used:
[1] = In vitro cytotoxicity (2 hour exposure); type: cell-based; conditions: chinese hamster, v-79-753 b cells; for MNTC at 2 h: read-out: In-vitro Cytotoxicity in cells: Nontoxic up to (concentration); for cytotoxicity at 2 h, 1000 µM: at 1mM
Procedure: (§1) Asynchronous monolayer cultures of Chinese hamster cells line V-79-753 B were employed in all the experiments. The monolayers were derived from exponentially-growing cultures. Methods of culturing and handling have been reported earlier by Cooke et al, Rad. Res. 65, 152 (1976). The plated cultures were rendered hypoxic in sealed dural containers capable of holding four petri dishes, by purging with nitrogen (oxygen-free grade) for one hour. Irradiation was carried out by using a Cobalt-60 source at a dose rate of approximately 310 rad/min according to the procedure described previously be Cooke et al, supra. A dose of 1395 rad was given to hypoxic cells in glass petri dishes in the presence of a given drug concentration (2000 cells/dish). Cell survival was estimated from unirradiated hypoxic cells exposed to the same drug concentration. Cultures were incubated for 6 days at 37° C. in an atmosphere of 5% CO2; the resulting colonies were fixed in absolute ethanol, stained with methylene blue and counted.
To determine toxicity in vitro, glass petri dishes containing approximately 200 cells/dish were exposed to a range of concentrations of each drug for 2 hours at room temperature (20° C.) in air or in hypoxia. Drug concentrations […] were employed.

in vivo = conditions: mouse, in vivo, ip
Procedure: (§2) Neurotoxicity in mice was determined using mice of strain BDF1. This was carried out by (1) determining the LD50 of each compound in mice and (2) observing the animals for acute neurotoxic symptoms such as convulsions. The drugs were either solubilized or suspended in normal saline and administered intraperitoneally to groups of 10 mice.

mice of strain BDF1 [2] = assay: in vivo; conditions: intraperitoneal, 24 hours observation
Procedure: as §2

hypoxic tumor cells = conditions: cited from earlier work; for selectivity (tumor cells versus normal tissue cells): DNA incorporating drugs; for radiosensitizing activity (in words): in vitro and/or in vivo
[3] = tested on: Chinese hamster cells line V-79-753 B; assay: Radiosensitization of hypoxic Chinese hamster cells (Cobalt-60 irradiation, enhancement ratio); type: cell-based; conditions: 1395 rad Cobalt-60
Procedure: as §1

[4] = tested on: hypoxic cells (Chinese hamster cells line V-79-753 B); assay: Differential cytotoxicity of hypoxic cells; type: cell-based
Procedure: as §1
[…] Drug concentrations between 10 μM were employed.

Redox potential = type: physicochemical
[5] = Toxicity, general statements of the description
mice = conditions: cited from earlier work
humans = conditions: cited from earlier work
mice of strain BDF1 [6] = conditions: footnote *: P. W. Sheldon, et al, Br. J. Cancer, 35, 795, 800 (1977); 1440 min; cited from earlier work
[7] = read-out: In-vitro Cytotoxicity in cells: inhibition

O=[N+]([O-])c1nc2ccccc2n1CC[N+]1([O-])CCCCC1 [A, 1-(1'-oxido)piperidinoethyl-2-nitrobenzimidazole]
MNTC at 2 h [1]: ≥ 10 mM | LD50 at 24 h (in vivo): ~5000 mg/kg | Convulsions in mice at LD50 doses (mice of strain BDF1 [2]): None

O=[N+]([O-])c1nc2ccccc2n1CCN1CCCCC1 [B, 1-piperidinoethyl-2-nitrobenzimidazole]
cytotoxicity at 2 h, 1000 µM [1, 7]: 50% | Convulsions in mice at LD50 doses (mice of strain BDF1 [2]): Yes | LD50 in mice (mice of strain BDF1 [2]): < 1 g

O=c1[nH]c(=O)n([C@H]2C[C@H](O)[C@@H](CO)O2)cc1Br [BUdR, 5-Bromodeoxyuridine]
selectivity (tumor cells versus normal tissue cells) (hypoxic tumor cells): failed precisely because of their poor selectivity problem

O=[N+]([O-])c1nccn1CC[N+]1([O-])CCCCC1 [C, 1-(1'-oxido)piperidinoethyl-2-nitroimidazole]
Radiosensitization (enhancement ratio at 1mM in chinese hamster cells) [3]: 2.2 | MNTC at 2 h [1]: ≥ 20 mM | Differential cytotoxicity of hypoxic cells ([4]; up to 4 hours): None | LD50 at 24 h (in vivo): > 5000 mg/kg | Convulsions in mice at LD50 doses (mice of strain BDF1 [2]): None | Redox Potential (Redox potential): -0.32 V

O=[N+]([O-])c1nccn1CCN1CCCCC1 [D, 1-piperidinoethyl-2-nitroimidazole]
Radiosensitization (enhancement ratio at 1mM in chinese hamster cells) [3]: ~2.1 | cytotoxicity at 2 h, 1000 µM [1, 7]: 70% | LD50 at 24 h (in vivo): 800 mg/kg | Convulsions in mice at LD50 doses (mice of strain BDF1 [2]): yes

C[N+]1(CCn2ccnc2[N+](=O)[O-])CCCCC1 [E, 1-(1'-methiodide)-piperidinoethyl-2-nitroimidazole]
cytotoxicity at 2 h, 2000 µM ([1]; at 2mM, read-out: In-vitro Cytotoxicity in cells: inhibition): 30% | LD50 at 24 h (in vivo): 250 mg/kg | Convulsions in mice at LD50 doses (mice of strain BDF1 [2]): yes | toxicity (in words) [5]: more toxic than the parent non-quaternized piperidino compound itself

COCC(O)Cn1ccnc1[N+](=O)[O-] (stereo not drawn) [F, Misonidazole]
Differential cytotoxicity of hypoxic cells ([4]; exposure time not given): yes | Redox Potential (Redox potential): -0.389 V | radiosensitizing activity (in words) (hypoxic tumor cells): effective in vivo | serious side effects when administered orally (mice; oral, mice): peripheral neuropathy and convulsions in mice | central nervous system (CNS) toxicity (humans; use in humans): limiting factor for their use in humans

O=c1[nH]c(=O)n([C@H]2C[C@H](O)[C@@H](CO)O2)cc1F [FUdR, 5-Fluorodeoxyuridine]
selectivity (tumor cells versus normal tissue cells) (hypoxic tumor cells): failed precisely because of their poor selectivity problem

Cc1ncc([N+](=O)[O-])n1CCO [G, Metronidazole]
Radiosensitization (enhancement ratio at 1mM in chinese hamster cells) [3]: 1.5 | Differential cytotoxicity of hypoxic cells ([4]; exposure time not given): yes | Redox Potential (Redox potential): -0.486 V | LD50 in mice (mice of strain BDF1 [6]): 3500 mg/kg | radiosensitizing activity (in words) (hypoxic tumor cells; as worded, listed as Metronidazole): active both in vivo and in vitro | radiosensitizing activity (in words) (hypoxic tumor cells; as worded, listed as metronidazole): effective in vivo | serious side effects when administered orally (mice; mouse, in vivo, po): peripheral neuropathy and convulsions in mice | central nervous system (CNS) toxicity (humans; in vivo): limiting factor for their use in humans

CN(C)CCC(=O)c1ccc([N+](=O)[O-])cc1.Cl [NDPP, p-nitro-3-dimethylamino propiophenone HCl]
radiosensitizing activity (in words) (hypoxic tumor cells): appeared promising in vitro
